Measured values published in patent US6525001B1, “Substituted pyrimidine and pyridine herbicides” (Mid-American Commercialization Corporation, priority 1997, dated 2003).

Tests used:
Assay type in all cases: in vivo
Design in all cases: key: 0 is no effect; 10 is complete control
[1] = system: bedstraw (Galium aparine); assay: Test B pre-/postemergence; conditions: for Bedstraw plant response rating: Preemergence
How it was run: (§1)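 Response scores run from 0, meaning no effect, to 10, meaning complete control, assigned by eye relative to controls twelve to sixteen days after spraying. Treatment was both preemergence on planted seed and postemergence on plants at the 1- to 4-leaf stage.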

[2] = system: sugar beet (Beta vulgaris); assay: Test B pre-/postemergence
How it was run: as §1

[3] = system: purple nutsedge (Cyperus rotundus); assay: Test B pre-/postemergence
How it was run: as §1

[4] = system: blackgrass (Alopecurus myosuroides); assay: Test B pre-/postemergence; conditions: for Blackgrass plant response rating: Preemergence
How it was run: as §1

[5] = system: cocklebur (Xanthium strumarium); assay: Test B pre-/postemergence; conditions: for Cocklebur plant response rating: Preemergence
How it was run: as §1

soybean (Glycine max) = assay: Test B pre-/postemergence
How it was run: as §1

[6] = system: broadleaf signalgrass (Brachiaria decumbens); assay: Test B pre-/postemergence; conditions: for B. signalgrass plant response rating: Preemergence
How it was run: as §1

[7] = system: momingglory (Ipomoea hederacea); assay: Test B pre-/postemergence
How it was run: as §1

rape (Brassica napus) = assay: Test B pre-/postemergence
How it was run: as §1

[8] = system: crabgrass (Digitaria sanguinalis); assay: Test B pre-/postemergence; conditions: for Crabgrass plant response rating: Preemergence
How it was run: as §1

corn (Zea mays) = assay: Test B pre-/postemergence; conditions: for Corn plant response rating: Preemergence
How it was run: as §1

wild oat (Avena fatua) = assay: Test B pre-/postemergence
How it was run: as §1

[9] = system: pigweed (Amaranthus retroflexus); assay: Test B pre-/postemergence
How it was run: as §1

[10] = system: velvetleaf (Abutilon theophrasti); assay: Test B pre-/postemergence
How it was run: as §1

[11] = system: wheat (Triticum aestivum); assay: Test B pre-/postemergence
How it was run: as §1

[12] = system: giant foxtail (Setaria faberii); assay: Test B pre-/postemergence
How it was run: as §1

[13] = system: smallflower flatsedge (Cyperus difformis); assay: Test B flood test
How it was run: (§2)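 Each value is a visual injury score relative to controls, with 10 meaning complete control and 0 no effect. Evaluation took place twelve to sixteen days after the 2-leaf-stage plants were treated and kept in the greenhouse.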

[14] = system: bamyardgrass (Echinochloa crus-galli); assay: Test B flood test
How it was run: as §2

[15] = system: duck salad (Heteranthera limosa); assay: Test B flood test
How it was run: as §2

rice (Oryza sativa) = assay: Test B flood test
How it was run: as §2

[16] = Rate 250 g/ha, Postemergence (so in the source)
[17] = Rate 62 g/ha, Postemergence (flood test)
[18] = Rate 125 g/ha, Postemergence section (flood test species)
[19] = Rate 250 g/ha, Postemergence (flood test species)
[20] = Rate 125 g/ha, Postemergence, flood test

Cc1cnc(-c2ccc(Cl)cc2)nc1Cc1cccc(C#N)c1 [Compound 33]
5: Morningglory plant response rating ([7]; Rate 125 g/ha, Postemergence) | Plant response rating, Morningglory ([7]; Rate 250 g/ha, Postemergence)
7: Rape plant response rating (rape (Brassica napus); Rate 125 g/ha, Postemergence) | Plant response rating, Rape (rape (Brassica napus); Rate 250 g/ha, Postemergence) | Plant response rating, Redroot pigweed ([9]; Rate 250 g/ha, Postemergence) | S. Flatsedge plant response rating [13, 18]
4: Plant response rating, Sugarbeets [2, 16] | Plant response rating, Soybean (soybean (Glycine max); Rate 250 g/ha, Postemergence) | Velvetleaf plant response rating ([10]; Rate 125 g/ha, Postemergence)
3: Plant response rating, Cocklebur ([5]; Rate 62 g/ha, Postemergence) | Plant response rating, Wild oats (wild oat (Avena fatua); Rate 250 g/ha, Postemergence) | Plant response rating, S. Flatsedge [13, 17] | Plant response rating, Barnyardgrass [14, 19] | Plant response rating, Rice (rice (Oryza sativa); [19])
9: Plant response rating, Bedstraw ([1]; Rate 62 g/ha, Postemergence) | Plant response rating, Bedstraw ([1]; Rate 125 g/ha, Postemergence) | Plant response rating, Bedstraw ([1]; Rate 250 g/ha, Postemergence)
1: Bedstraw plant response rating ([1]; Rate 125 g/ha) | Plant response rating, Sugarbeets ([2]; Rate 125 g/ha, Preemergence) | Plant response rating, Blackgrass ([4]; Rate 125 g/ha, Postemergence) | Plant response rating, Soybean (soybean (Glycine max); Rate 62 g/ha, Postemergence) | Plant response rating, B. signalgrass ([6]; Rate 62 g/ha, Postemergence) | Plant response rating, B. signalgrass ([6]; Rate 125 g/ha, Postemergence) | B. signalgrass plant response rating ([6]; Rate 125 g/ha) | Plant response rating, B. signalgrass ([6]; Rate 250 g/ha, Postemergence as printed in head r139 (second section for compounds 26-50)) | Plant response rating, Crabgrass ([8]; Rate 250 g/ha, Postemergence) | Plant response rating, Corn (corn (Zea mays); Rate 62 g/ha, Postemergence) | Plant response rating, Corn (corn (Zea mays); Rate 125 g/ha, Postemergence) | Plant response rating, Corn (corn (Zea mays); Rate 250 g/ha, Postemergence) | Wild oats plant response rating (wild oat (Avena fatua); Rate 62 g/ha, Postemergence) | Plant response rating, Wild oats (wild oat (Avena fatua); [16]) | Plant response rating, Redroot pigweed ([9]; Rate 62 g/ha, Postemergence) | Plant response rating, Velvetleaf ([10]; Rate 62 g/ha, Postemergence) | Plant response rating, Velvetleaf [10, 16] | Wheat plant response rating ([11]; Rate 125 g/ha, Postemergence) | Plant response rating, Wheat ([11]; Rate 250 g/ha, Postemergence) | Plant response rating, Wheat [11, 16] | Giant foxtail plant response rating ([12]; Rate 125 g/ha, Preemergence) | Plant response rating, Giant foxtail ([12]; Rate 250 g/ha, Postemergence) | Plant response rating, Giant foxtail [12, 16] | Plant response rating, Barnyardgrass [14, 17] | Plant response rating, Ducksalad [15, 20] | Plant response rating, Rice (rice (Oryza sativa); [17]) | Rice plant response rating (rice (Oryza sativa); [18])
8: Plant response rating, S. Flatsedge [13, 19]
6: Plant response rating, Cocklebur ([5]; Rate 125 g/ha, Postemergence) | Plant response rating, Cocklebur ([5]; Rate 250 g/ha, Postemergence) | Plant response rating, Rape (rape (Brassica napus); Rate 62 g/ha, Postemergence) | Plant response rating, Velvetleaf ([10]; Rate 250 g/ha, Postemergence)
0: Bedstraw plant response rating ([1]; Rate 62 g/ha) | Sugarbeets plant response rating ([2]; Rate 62 g/ha, Preemergence) | Plant response rating, Nutsedge ([3]; Rate 62 g/ha, Postemergence) | Nutsedge plant response rating ([3]; Rate 62 g/ha, Preemergence) | Nutsedge plant response rating ([3]; Rate 125 g/ha, Postemergence) | Nutsedge plant response rating ([3]; Rate 125 g/ha, Preemergence) | Plant response rating, Nutsedge ([3]; Rate 250 g/ha, Postemergence) | Plant response rating, Blackgrass ([4]; Rate 62 g/ha, Postemergence) | Blackgrass plant response rating ([4]; Rate 62 g/ha) | Blackgrass plant response rating ([4]; Rate 125 g/ha) | Plant response rating, Blackgrass [4, 16] | Cocklebur plant response rating ([5]; Rate 62 g/ha) | Cocklebur plant response rating ([5]; Rate 125 g/ha) | Plant response rating, Cocklebur [5, 16] | Soybean plant response rating (soybean (Glycine max); Rate 62 g/ha, Preemergence) | Plant response rating, Soybean (soybean (Glycine max); Rate 125 g/ha, Preemergence) | Plant response rating, Soybean (soybean (Glycine max); [16]) | B. signalgrass plant response rating ([6]; Rate 62 g/ha) | Morningglory plant response rating ([7]; Rate 62 g/ha, Preemergence) | Morningglory plant response rating ([7]; Rate 125 g/ha, Preemergence) | Plant response rating, Morningglory [7, 16] | Rape plant response rating (rape (Brassica napus); Rate 62 g/ha, Preemergence) | Rape plant response rating (rape (Brassica napus); Rate 125 g/ha, Preemergence) | Plant response rating, Crabgrass ([8]; Rate 62 g/ha, Postemergence) | Crabgrass plant response rating ([8]; Rate 62 g/ha) | Plant response rating, Crabgrass ([8]; Rate 125 g/ha, Postemergence) | Crabgrass plant response rating ([8]; Rate 125 g/ha) | Plant response rating, Crabgrass [8, 16] | Corn plant response rating (corn (Zea mays); Rate 62 g/ha) | Corn plant response rating (corn (Zea mays); Rate 125 g/ha) | Plant response rating, Corn (corn (Zea mays); [16]) | Wild oats plant response rating (wild oat (Avena fatua); Rate 62 g/ha, Preemergence) | Plant response rating, Wild oats (wild oat (Avena fatua); Rate 125 g/ha, Preemergence) | Redroot pigweed plant response rating ([9]; Rate 62 g/ha, Preemergence) | Redroot pigweed plant response rating ([9]; Rate 125 g/ha, Preemergence) | Velvetleaf plant response rating ([10]; Rate 62 g/ha, Preemergence) | Plant response rating, Velvetleaf ([10]; Rate 125 g/ha, Preemergence) | Wheat plant response rating ([11]; Rate 62 g/ha, Postemergence) | Wheat plant response rating ([11]; Rate 62 g/ha, Preemergence) | Plant response rating, Wheat ([11]; Rate 125 g/ha, Preemergence) | Plant response rating, Giant foxtail ([12]; Rate 62 g/ha, Postemergence) | Giant foxtail plant response rating ([12]; Rate 62 g/ha, Preemergence) | Giant foxtail plant response rating ([12]; Rate 125 g/ha, Postemergence) | Plant response rating, Ducksalad [15, 17]
10: Plant response rating, Sugarbeets ([2]; Rate 62 g/ha, Postemergence) | Sugarbeets plant response rating ([2]; Rate 125 g/ha, Postemergence) | Plant response rating, Sugarbeets ([2]; Rate 250 g/ha, Postemergence)
2: Plant response rating, Bedstraw [1, 16] | Plant response rating, Blackgrass ([4]; Rate 250 g/ha, Postemergence) | Soybean plant response rating (soybean (Glycine max); Rate 125 g/ha, Postemergence) | Plant response rating, B. signalgrass ([6]; Rate 250 g/ha, Postemergence) | Plant response rating, Morningglory ([7]; Rate 62 g/ha, Postemergence) | Plant response rating, Rape (rape (Brassica napus); [16]) | Wild oats plant response rating (wild oat (Avena fatua); Rate 125 g/ha, Postemergence) | Redroot pigweed plant response rating ([9]; Rate 125 g/ha, Postemergence) | Plant response rating, Redroot pigweed [9, 16] | Plant response rating, Barnyardgrass [14, 20] | Plant response rating, Ducksalad [15, 19]
